Test results published in patent US12173042B2, “Methods of treating cancers with CT45 targeted therapies” (The University of Chicago, priority 2016, dated 2024).
“Also recorded” adds a separate entry of the source.

What was measured:
Type in all cases: cell-based, human
59M cells = experiment: Colony assay of carboplatin treated 59M cells with siRNA; conditions: cells deficient in PP4 or expressing CT45
Source text: FIG. 23. Cell deficient in PP4 or expressing the endogenous PP4 inhibitor CT45 are hypersensitive to carboplatin treatment. Shown are colony assay results of carboplatin treated 59M cells transfected with a control siRNA, PP4C siRNA or CT45 siRNA. Colony numbers are normalized to untreated cells of each siRNA.

[1] = test system: DNA damage in CT45-expressing cells; experiment: Comet assay; conditions: day 5
Procedure: Cells were treated with carboplatin for 3 days and then incubated an additional 2 days without drug. The comet assay was performed on day 5 as previously described39. Briefly, 2.5e4 cells/condition were resuspended in 70 uL 0.5% low melting point agarose (LMPA) at 37 C and plated on a glass slide precoated with 1% agarose in PBS. Samples were allowed to solidify at 4 C for 20 minutes with a square cover glass. The cover class was gently removed and a second 70 uL layer of 0.5% LMPA was applied and again allowed to solidify. The cover glass was removed and the slides immersed in Comet Lysis solution (2.5M NaCl, 100 mM EDTA, 10 mM Tris, 0.015% Triton X-100, pH 10) for one hour at 4 C and from this point forward protected from light. After lysis, the slides were equilibrated for 20 minutes in Comet Electrophoresis Buffer (0.3N NaOH, 1 mM EDTA, […]) at 4 C, and then run at 25V for 20 minutes. […] At least 100 cells were quantified/sample using the software OpenComet40. […]
Cells were treated with carboplatin for 3 days and then incubated an additional 2 days without drug. […] At least 100 cells were quantified/sample using the software OpenComet. […]

[2] = test system: chromatin of OVCAR5-V5-CT45 and OVCAR5-V5 cells; experiment: Micrococcal nuclease (MNase) assay; conditions: after five days, vector control and CT45 overexpressing cell line
Procedure: Chromatin relaxation was assayed using the micrococcal nuclease (MNase) assay as previously described, with a few modifications. Briefly, nuclei from 1E6 cells were extracted with 300 μl ice-cold lysis buffer (10 mM Tris-HCl (pH 7.5), 10 mM NaCl, 3 mM MgCl2 and 0.4% IGPAL-CA-630) on ice for 5 min. After centrifugation (2,000 g for 5 min at 4° C.), nuclei were washed two times in lysis buffer and one time in 500 μl digestion buffer (0.32M sucrose, 50 mM Tris-HCl (pH7.5), 4 mM MgCl2, 1 mM CaCl2). Nuclei were then digested in digestion buffer with 50 gel units MNase (NEB) for 9 min at 27° C. in a final volume of 100 μl. The reaction was stopped by adding a final concentration of 1% SDS and 15 mM EGTA. Genomic DNA was purified and separated by gel electrophoresis (1.2% agarose).

[3] = test system: OVCAR5 stably overexpressing CT45; experiment: Clonogenic survival assay, OVCAR5; conditions: CT45 expressing cells treated with carboplatin
Procedure: Cells were treated with different carboplatin concentrations for 48 hours and 7-9 days after treatment colonies were counted and plotted as a percent of control on a logarithmic scale.
Cells were treated with different carboplatin concentrations for 48-72 hours. 2000 cells per 6-well were then plated for 7-9 days in drug-free medium. Grown colonies were fixed and stained with 1% formaldehyde, 1% methanol and 0.05% Crystal Violet for 20 min. Colony numbers were then counted with the Colony Area ImageJ plugin and plotted as percent of control on a logarithmic scale.

## N.N.O=C([O-])C1(C(=O)[O-])CCC1.[Pt+2] [carboplatin]
59M cells
  sensitivity of colony formation to carboplatin: hypersensitive
[1]
  DNA damage (tail moment): higher levels of DNA damage; also recorded: more DNA damage
[2]
  chromatin relaxation: induced global chromatin relaxation
[3]
  colony formation: significantly reduced
